From patent publication US12262712B2, “Oxime ether compound and application thereof” (SHENYANG SINOCHEM AGROCHEMICALS R&D CO., LTD., priority 2019, dated 2025)

Assays:
[1] = tested on: cucumber downy mildew; assay: In vivo pot determination, control effect on cucumber downy mildew; conditions: 400 ppm, foliar spray, parallel comparison (Table 4)
Description: (§1) An in vivo pot determination method was adopted, i.e., a sample of the compound to be tested was dissolved with a small amount of solvent (the type of the solvent may be, for example, acetone, methanol and DMF, and selected according to the capability to dissolve the sample; the volume ratio of the amount of the solvent to the amount of sprayed solution is equal to or less than 0.05), diluted with water containing 0.1% Tween 80 and formulated into a required concentration of solution to be tested. Foliar spray treatment was carried out with the compounds of the present invention at the designed concentrations. A blank control with clear water spray was set and repeated for three times. Disease inoculation was carried out on the second day after the treatment. After inoculation, the plants were placed in a phytotron for moisturizing cultivation (temperature: 25° C. on day, 20° C. at night, relative humidity 95-99%). […] After the control was fully diseased (generally one week), the control effects of the compounds were evaluated. For the result survey, A Manual of Assessment Keys for Plant Diseases compiled by American Phytopathological Society can be referred to, which uses 100-0 for representation. “100” level represents no disease and “0” level represents the most severe disease degree.

[2] = tested on: soybean rust; assay: In vivo pot determination, control effect on soybean rust; conditions: foliar spray
Description: as §1

[3] = tested on: bacterial spot of cucumber (Pseudomonas syringae pv. lachrymans); assay: Field trial, control of bacterial spot of cucumber; assay type: in vivo; conditions: whole plant spray three times at 7 day interval, investigated 7 days after last delivery
Description: Compounds 47 and 97 were selected from the above compounds for field trial to control bacterial spot of cucumber (Pseudomonas syringae pv. lachrymans). The treatment dose of the test drug was 400 mg/L, and the treatment dose of a control drug CK2 was 700 mg/L. The test drug and the control drug were arranged in random blocks; the plot area was 15 m^2; and repetition was conducted for 3 times. The drug delivery mode was the whole plant spray. Drug delivery was conducted for three times, with an interval of 7 days, and control effect investigation was carried out 7 days after the last drug delivery. During investigation, 5 points in each plot were sampled; all leaves were investigated; and disease indexes and control effects were calculated according to the percentage level of diseased spot area of each leaf in the whole leaf area.

[4] = tested on: soft rot of Chinese cabbage; assay: Control effect on soft rot of Chinese cabbage (leaf piece, spray, needle wound inoculation); assay type: in vivo, soft rot bacteria of Chinese cabbage; conditions: 400 mg/L, sprayed on leaf, 48 hours in the dark
Text: (§2) The compounds of the present invention are used to determine the control effect on various plant bacterial diseases. For different bacterial diseases, the test procedures are as follows:
Soft rot of Chinese cabbage: 2 cm of square Chinese cabbage leaf is cut and placed in a glass petri dish lined with double-layer filter paper. A compound dissolved in N,N dimethylformamide and diluted with water to a required concentration is sprayed onto the surface of the Chinese cabbage leaf. After the medicinal liquid on the surface of the Chinese cabbage leaf is dried in a fume hood, the surface of the Chinese cabbage leaf is acupunctured by using an inoculating needle to cause a wound. […] of soft rot bacteria of Chinese cabbage cultured to a stable growth period is added to the wound for inoculation. Finally, the test materials are placed in an incubator and cultured for 48 hours in the dark; and the control effect is investigated after full onset of diseases through control.

[5] = tested on: melon bacterial fruit blotch; assay: Control effect on melon bacterial fruit blotch (seed soak, greenhouse); assay type: in vivo; conditions: 400 mg/L, seeds soaked in bacteria plus compound solution
Description: as §2
Melon bacterial fruit blotch: the compound to be tested is dissolved with a small amount of N,N dimethylformamide and diluted with water to the required concentration. The pathogenic bacteria cultured to a stable growth stage is evenly mixed with a quantitative compound solution; the germinated melon seeds are soaked in the mixed solution of a bacteria solution and the compound for half an hour; then, the seeds are sown in an earthworm soil culture cup and put into a greenhouse for moisturizing cultivation for two weeks generally; and the control effect is investigated after full onset of diseases through control.

N#CC(C#N)=NOCc1cnc(Cl)s1 [CK1, reference compound]
Control Effects on Cucumber Downy Mildew (%) [1]: 0% | Control Effects on Soybean Rust (%) ([2]; 100 ppm): 0% | Control Effects on Soybean Rust (%) ([2]; 200 ppm): 0%

N#CC(C#N)=NOCc1csc(-c2ccccc2)n1 [CK2, reference compound]
Control Effect (%) ([3]; active ingredient dose 700 mg/L): 76.89% | Control Effects on Cucumber Downy Mildew (%) [1]: 0%

N#CC(C#N)=NOCc1csc(-c2ccc(Cl)cc2)n1 [CK3, reference compound]
Control Effects on Cucumber Downy Mildew (%) [1]: 0%

N#CC(C#N)=NOCc1csc(NC(=O)c2ccc(Cl)cc2)n1 [Compound 4]
control effects on soft rot of Chinese cabbage [4]: 100% | control effects on melon bacterial fruit blotch [5]: 100%

N#CC(C#N)=NOCc1csc(NC(=O)c2ccccc2F)n1 [Compound 5]
control effects on soft rot of Chinese cabbage [4]: 100% | control effects on melon bacterial fruit blotch [5]: 100%

N#CC(C#N)=NOCc1csc(NC(=O)c2cccc(F)c2)n1 [Compound 6]
control effects on soft rot of Chinese cabbage [4]: 100% | control effects on melon bacterial fruit blotch [5]: 100%

N#CC(C#N)=NOCc1csc(NC(=O)c2ccc(Br)cc2)n1 [Compound 10]
Control Effects on Soybean Rust (%) ([2]; 100 ppm): 100% | Control Effects on Soybean Rust (%) ([2]; 200 ppm): 100%

N#CC(C#N)=NOCc1csc(NC(=O)c2ccccc2C(F)(F)F)n1 [Compound 20]
control effects on soft rot of Chinese cabbage [4]: 100% | control effects on melon bacterial fruit blotch [5]: 100% | Control Effects on Cucumber Downy Mildew (%) [1]: 100%

N#CC(C#N)=NOCc1csc(NC(=O)c2ccc(C(F)(F)F)cc2)n1 [Compound 22]
control effects on soft rot of Chinese cabbage [4]: 100% | control effects on melon bacterial fruit blotch [5]: 100%

N#CC(C#N)=NOCc1csc(NC(=O)c2ccccc2OC(F)(F)F)n1 [Compound 23]
control effects on soft rot of Chinese cabbage [4]: 100% | control effects on melon bacterial fruit blotch [5]: 100% | Control Effects on Soybean Rust (%) ([2]; 100 ppm): 100% | Control Effects on Soybean Rust (%) ([2]; 200 ppm): 100%

N#CC(C#N)=NOCc1csc(NC(=O)c2ccc(Cl)cc2Cl)n1 [Compound 34]
control effects on soft rot of Chinese cabbage [4]: 100% | control effects on melon bacterial fruit blotch [5]: 100%

N#CC(C#N)=NOCc1csc(NC(=O)c2ccc(Cl)c(Cl)c2)n1 [Compound 36]
control effects on soft rot of Chinese cabbage [4]: 100% | control effects on melon bacterial fruit blotch [5]: 100%

N#CC(C#N)=NOCc1csc(NC(=O)c2ccc([N+](=O)[O-])c(F)c2)n1 [Compound 45]
control effects on soft rot of Chinese cabbage [4]: 100% | control effects on melon bacterial fruit blotch [5]: 100% | Control Effects on Cucumber Downy Mildew (%) [1]: 100%

N#CC(C#N)=NOCc1csc(N)n1 [Compound 47, ((2-aminothiazole-4-yl)methoxy)iminoimide dicyanide]
Control Effect (%) ([3]; active ingredient dose 400 mg/L): 77.00% | control effects on soft rot of Chinese cabbage [4]: 100% | control effects on melon bacterial fruit blotch [5]: 100% | Control Effects on Soybean Rust (%) ([2]; 100 ppm): 85% | Control Effects on Soybean Rust (%) ([2]; 200 ppm): 100%

N#CC(C#N)=NOCc1csc(NC(=O)c2cccnc2)n1 [Compound 65]
control effects on soft rot of Chinese cabbage [4]: 100% | control effects on melon bacterial fruit blotch [5]: 100%

N#CC(C#N)=NOCc1csc(NC(=O)c2ccc(F)c(C(F)(F)F)c2)n1 [Compound 74]
control effects on soft rot of Chinese cabbage [4]: 100% | control effects on melon bacterial fruit blotch [5]: 100%

N#CC(C#N)=NOCc1csc(NC(=O)c2ccc(F)cc2F)n1 [Compound 86]
control effects on soft rot of Chinese cabbage [4]: 100% | control effects on melon bacterial fruit blotch [5]: 100%

N#CC(C#N)=NOCc1csc(NC(=O)c2ccc(F)c(F)c2)n1 [Compound 87]
control effects on soft rot of Chinese cabbage [4]: 100% | control effects on melon bacterial fruit blotch [5]: 100%

N#CC(C#N)=NOCc1csc(NC(=O)c2ccccc2)n1 [Compound 95]
control effects on soft rot of Chinese cabbage [4]: 100% | control effects on melon bacterial fruit blotch [5]: 100%

CC=CC(=O)Nc1nc(CON=C(C#N)C#N)cs1 [Compound 117]
control effects on soft rot of Chinese cabbage [4]: 100% | control effects on melon bacterial fruit blotch [5]: 100% | Control Effects on Cucumber Downy Mildew (%) [1]: 100%

CCC(=O)Nc1nc(CON=C(C#N)C#N)cs1 [Compound 118]
control effects on soft rot of Chinese cabbage [4]: 100% | control effects on melon bacterial fruit blotch [5]: 100%

N#CC(C#N)=NOCc1csc(NC(=O)C(F)(F)F)n1 [Compound 119]
control effects on soft rot of Chinese cabbage [4]: 100% | control effects on melon bacterial fruit blotch [5]: 100%

CC(C)(C)OC(=O)Nc1nc(CON=C(C#N)C#N)cs1 [Compound 123]
control effects on soft rot of Chinese cabbage [4]: 100% | control effects on melon bacterial fruit blotch [5]: 100%

N#CC(=NOCc1csc(NC(=O)c2ccccc2Cl)n1)C(N)=O [Compound 134]
control effects on soft rot of Chinese cabbage [4]: 100% | control effects on melon bacterial fruit blotch [5]: 100%

N#CC(=NOCc1csc(N)n1)C(N)=O [Compound 179]
control effects on soft rot of Chinese cabbage [4]: 100% | control effects on melon bacterial fruit blotch [5]: 100% | Control Effects on Soybean Rust (%) ([2]; 100 ppm): 80% | Control Effects on Soybean Rust (%) ([2]; 200 ppm): 100%

Cc1ccc(S(=O)(=O)Nc2nc(CON=C(C#N)C(N)=O)cs2)cc1 [Compound 228]
control effects on soft rot of Chinese cabbage [4]: 100% | control effects on melon bacterial fruit blotch [5]: 100%

CC(C)(C)OC(=O)Nc1nc(CON=C(C#N)C(N)=O)cs1 [Compound 253]
control effects on soft rot of Chinese cabbage [4]: 100% | control effects on melon bacterial fruit blotch [5]: 100%

CC(=NNc1nc(CON=C(C#N)C#N)cs1)c1ccc(F)cc1 [Compound 361]
control effects on soft rot of Chinese cabbage [4]: 100% | control effects on melon bacterial fruit blotch [5]: 100%

CCc1ccc(C(=O)Nc2nc(CON=C(C#N)C#N)cs2)cc1 [Compound 365]
Control Effects on Soybean Rust (%) ([2]; 100 ppm): 100% | Control Effects on Soybean Rust (%) ([2]; 200 ppm): 100%

N#CC(C#N)=NOCc1csc(NC(=O)c2ccc3c(c2)OC(F)(F)O3)n1 [Compound 366]
control effects on soft rot of Chinese cabbage [4]: 100% | control effects on melon bacterial fruit blotch [5]: 100%

N#CC(C#N)=NOCc1csc(NN=C(c2ccc(Cl)cc2)c2ccc(Cl)cc2)n1 [Compound 367]
control effects on soft rot of Chinese cabbage [4]: 100% | control effects on melon bacterial fruit blotch [5]: 100%
